Each structure is given as a SMILES string. “And” between values parts separate entries of the source, which are not always exact repeats. Equal values may be shown once.

This is an account of results in US6579718B1, “Carbazolylvinyl dye protein stains” (Molecular Probes, Inc., priority 2000, dated 2003).

Data set [1] is described as follows: Fluorescence excitation/emission spectra in 2% SDS at acidic and neutral pH (Example 20, FIG. 1). It is filed as physicochemical. The note with it: 2% SDS in 7% acetic acid or phosphate-buffered saline. Here is the method: FIG. 1: Fluorescence excitation/emission spectra of Compound 9. Spectra were generated in 7% acetic acid, 2% SDS. […] Identical spectra were obtained in phosphate-buffered saline, 2% sodium dodecyl sulfate (SDS).
Excitation/emission profiles of Compound 9 are obtained by incubating a […] solution of the dye in 2% SDS that has been prepared in either 7% acetic acid or 50 mM Na2HPO4, 150 mM NaCl, pH 7.0 for 30 minutes. Without the SDS, the dye gives very low fluorescence emission in aqueous solutions or buffers. Measurements are made in a quartz cuvette using a Hitachi F4500 fluorescence Spectrometer (Hitachi, Tokyo, Japan) or similar instrument. Spectra generated in 7% acetic acid, 2% SDS can be essentially superimposed on spectra obtained in phosphate-buffered saline, 2% SDS. Excitation maxima are observed at 300 and 490 nm with emission set at 640 nm. An emission maximum is observed at 640 nm with excitation set at 440 nm. This excitation profile is ideally suited for visualization of the stain using a 302-nm UV-B transilluminator, 473-nm second harmonic generation (SHG) laser or 488-nm argon-ion laser. The dye can also be visualized on a blue-light box (DARK READER™, Clare Research, Boulder, Colo.). The emission maximum of the Compound 9 is observed at 640 nm, and is thus spectrally well matched to emission band-pass filters optimized for the Texas Red dye.

The next data set deals with proteins. In words: Staining protein gels with dye in the running buffer (Example 30). The note with it: running buffer with 0.05% SDS and 1-3 μM dye. Here is the method:
The proteins of interest are prepared for loading on standard SDS gels, using standard methods. Dilution series of known molecular weight markers, or proteins of unknown concentration, or protein mixtures of unknown composition are used. The gels are loaded and run under standard conditions, excepting that the running buffer contains 0.05% SDS and 1-3 μM Compound 9. The stained gels are either photographed directly after electrophoresis or are destained in 7.5% acetic acid or phosphate-buffered saline for 20-50 minutes to remove background staining prior to photography. […] In addition, the migration of protein bands can be monitored through the glass plates that support the gel, during electrophoresis. Such monitoring can either be calorimetric, since the stained protein bands are visually colored, or can be via fluorescence, if the excitation source is at visible wavelengths (such as a laser or mercury-arc lamp, for example).

Data set [2] concerns amino acid homo- and hetero-polymers. The data set is described as follows: Dye staining of amino acid homo- and hetero-polymers copolymerized into polyacrylamide gel discs. From the text: The specificity of protein detection of the present method can be compared to that of silver, CBB, SYPRO Orange dye and SYPRO Red dye staining for a variety of synthetic poly(amino acids) copolymerized into a polyacrylamide gel matrix. To do this, homopolymers of L-arginine, asparagine, histidine, lysine, aspartate, glutamate, alanine, glycine, isoleucine, leucine, methionine, serine, threonine, tryptophan, tyrosine and proline are copolymerized into 15% T, 2.6% C polyacrylamide gels at a concentration of […]. Except when indicated, 0.1% sodium dodecyl sulfate is included in the polyacrylamide solution as well. The amino acid heteropolymers, poly(glutamate, alanine, tyrosine), poly(glutamate, tyrosine), poly(lysine, tyrosine), poly(glutamate, lysine, tyrosine), and poly(arginine, tyrosine) are copolymerized into polyacrylamide gels in an identical manner as the homopolymers. Blank gels containing no polymer are prepared for reference. The co-polymerized gels are cut into discs using the large end of a 1000 microliter pipet tip (Sorenson Bioscience, Inc., West Salt. Lake City, Utah) and stained in Falcon 48 well flat bottom tissue culture plates (Becton-Dickinson, Franklin Lakes, N.J.) on an orbital shaker operating at 50 RPM. Gel discs are quantified on a Roche Lumi-Imager system (Indianapolis, Ind.) and classified into three groups based upon staining intensity (strong, moderate, or weak staining).

A further data set deals with BSA (Bos taurus, UniProt P02769). In words: Absorbance/emission spectra, fluorescence enhancement and quantum yield of dyes in solution +/- BSA (Example 21). In kind it is physicochemical, bovine. How it is done: A particular dye of this invention is generally selected for a particular assay using one or more of the following criteria: sensitivity to poly(amino acids), insensitivity to the presence of nucleic acids, dynamic range, photostability, staining time, and spectral properties. […] Although the fluorescence enhancements and quantum yields are low to moderate in solution, some are significant relative to the long wavelength emission maxima (see Table 1 and Example 21).
BSA, sequence (P02769 25-607): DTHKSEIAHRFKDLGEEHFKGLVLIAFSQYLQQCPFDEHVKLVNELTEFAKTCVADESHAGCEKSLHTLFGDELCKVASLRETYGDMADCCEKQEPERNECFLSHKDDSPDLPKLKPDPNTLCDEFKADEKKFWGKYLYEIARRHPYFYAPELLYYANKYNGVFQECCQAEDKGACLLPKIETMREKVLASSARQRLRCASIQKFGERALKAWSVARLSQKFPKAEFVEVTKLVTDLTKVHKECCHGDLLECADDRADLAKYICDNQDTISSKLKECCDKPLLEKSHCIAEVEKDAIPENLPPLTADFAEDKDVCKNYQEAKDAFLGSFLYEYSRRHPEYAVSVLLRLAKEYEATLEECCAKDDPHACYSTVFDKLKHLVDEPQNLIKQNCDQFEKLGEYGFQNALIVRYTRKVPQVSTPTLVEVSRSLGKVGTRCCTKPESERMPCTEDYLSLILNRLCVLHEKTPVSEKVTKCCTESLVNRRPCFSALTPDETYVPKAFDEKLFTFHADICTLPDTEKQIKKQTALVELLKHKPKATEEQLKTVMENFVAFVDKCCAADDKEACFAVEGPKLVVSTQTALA
Measurements are performed using −1 μM dye+/−150 μg/mL BSA in 10 mM Tris-HCl, pH 7.5,+0.05% SDS with a 2.0 mL sample volume. Fluorescence enhancements are calculated at emission maxima in a standard fluorometer using 470 nm excitation. Fluorescence quantum yields are determined relative to fluorescein (in 0.1 M NaOH), using 470 nm excitation.

The test system of data set [3] is whole cell lysates of rat fibroblasts. In words: Staining of two-dimensional gels of rat fibroblast lysates (Example 23). The note with it: 2-D gel, photography with 490-nm long pass filter. Here is the method:
The non-fixative nature of the staining solution is illustrated by evaluating passive elution of proteins from a polyacrylamide matrix. Passive diffuision of proteins is evaluated by staining two-dimensional gels in 7% acetic acid or in phosphate-buffered saline using Compound 9. Whole cell lysates of rat fibroblasts are extracted according to standard procedures for mammalian cells. Approximately 50 μg total protein is applied per gel and large format two dimensional gel electrophoresis is performed by standard methods. Compound 9 staining solution is prepared by diluting the stock reagent to 2 μM in either 7.5% acetic acid or 50 mM Na2HPO4, 150 mM NaCl, pH 7.0 while vigorously mixing. Approximately 500-750 mL of Compound 9 staining solution is used for a typical large format 2-D gel (20 cm×20 cm×1 mm). The gel is placed into the staining solution and the container is covered with aluminum foil to protect the dye from bright light. The gel is gently agitated for at least 30 minutes at room temperature using an orbital shaker (50 RPM). After staining the gel is briefly dipped in water and visualized on a UV light box. […] As little as 1 ng of protein can be visualized when the fluorescent image is recorded by photography using a cellophane 490-nm long pass filter. […]

The mark [4] stands for this setting: gel discs with 0.1% SDS, no asterisk = moderate.
[5] abbreviates: 150 μg/mL BSA, 10 mM Tris-HCl, pH 7.5, 0.05% SDS.
The mark [6] stands for this setting: dye without BSA, 10 mM Tris-HCl, pH 7.5, 0.05% SDS.

As to `CCn1c2ccccc2c2cc(/C=C/c3cc[n+](CCCCS(=O)(=O)[O-])c4ccccc34)ccc21` [Compound 9], the Excitation maxima in data set [1] (emission set at 640 nm) was 300 nm and 490 nm. In data set [1] (excitation set at 440 nm), this molecule came in with an Emission maximum of 640 nm. For the same molecule, in the data set on proteins, the “Sensitivity compared with staining gels after electrophoresis” value was “about the same”. In data set [2] (setting [4]), the “Staining intensity, Arg homopolymer” value was “Arg*”; the “Staining intensity, Arg:Tyr heteropolymer” value is reported as “Arg:Tyr*”; the “Staining intensity, Glu:Ala:Tyr heteropolymer” value is listed as “Glu:Ala:Tyr*”; the “Staining intensity, Glu:Lys:Tyr heteropolymer” value was “Glu:Lys:Tyr*”. Besides, in data set [2] (setting [4]), the “Staining intensity, Glu:Tyr heteropolymer” value is reported as “Glu:Tyr*”; the “Staining intensity, Gly homopolymer” value is “Gly”; the “Staining intensity, His homopolymer” value is on record as “His*”; the “Staining intensity, Ile homopolymer” value is “Ile”. Also, in data set [2] (setting [4]), the “Staining intensity, Lys homopolymer” value is “Lys*”; the “Staining intensity, Lys:Tyr heteropolymer” value is recorded as “Lys:Tyr*”; the “Staining intensity, Tyr homopolymer” value is listed as “Tyr*”. Moreover, the “Change of amino acid polymer staining in phosphate-buffered saline” value in data set [2] (phosphate-buffered saline versus 7% acetic acid) was “not substantially reduced”. Besides, on BSA (setting [5]), the ABS λ max, BSA was 480 nm and the “EM λ max, BSA” value is 604 nm. In addition, at BSA (150 μg/mL BSA, 0.05% SDS, at emission maxima, 470 nm excitation), the “FE (fluorescence enhancement, BSA)” value worked out at 92 fold. Also, the “Quantum Yield (BSA)” value on BSA (150 μg/mL BSA, relative to fluorescein in 0.1 M NaOH, 470 nm excitation) is reported as 0.21. Also, on BSA (setting [6]), the ABS λ max, unbound was 479 nm and the “EM λ max, unbound” value is reported as ~700 nm. For the same molecule, in data set [3], the “Amount of protein that can be visualized (detection sensitivity)” value is given as 1 ng.
